How the values were obtained:
Type in all cases: in vivo, human
[1] = tested on: Sjögren's syndrome dry eye patients; test: Clinical evaluation of ocular surface parameters before and after topical corticosteroid treatment; details: SS DE patients, after one month topical corticosteroid with artificial tears, mean ± SD
Procedure: […] participated in this Example (FIG. 1): 40 patients with Sjögren's syndrome dry eye (SS DE) (78 eyes), 24 patients with non-Sjögren's syndrome dry eye (non-SS DE) (48 eyes), and 16 normal healthy subjects as controls (25 eyes). 16 patients of the 40 patients with Sjögren's syndrome dry eye were treated with topical corticosteroid (4 times per one day for 1 month, 0.1% fluoromeladone, Sam-II Pharmaceutics Co. Seoul, Korea). […] All patients with Sjögren's syndrome dry eye were diagnosed with primary Sjögren's syndrome by a rheumatologist according to the 2012 Sjögren's International Collaborative Clinical Alliance (SICCA) classification criteria. This study excluded Sjögren's syndrome patients or subjects who had been treated with disease-modifying therapies. Due to the unique prevalence of females and males found in Sjögren's syndrome (F:M=9:1), only female patients participated in the study for the prevention of the data misinterpretation. Exclusion criteria were pregnant women, nurses, contact lens wearers, tear point closure patients, persons with eye surgery within 6 months, persons with acute or chronic eye disease other than dry eye syndrome, persons with concomitant allergies, persons with eyelid abnormalities, persons with Grade 2 or higher dysfunction of the meibomian gland. This study also excluded, as a subject, persons who had received other systemic treatments or other topical treatments other than artificial tears within the past 3 months.
The following ocular surface examinations were conducted on the 82 subjects; Schirmer I test, tear film breakup time (TBUT), ocular surface staining (OSS) score, and ocular surface disease index (OSDI) questionnaire.
The Schirmer I test was performed without anesthesia before injecting the drug into the eye. The standard Schirmer's strips were placed on the side ⅓ of the lower eyelid. After 5 minutes, the strips' wetness was measured by using a millimeter scale of the strips (Eagle Vision, Memphis, TN). Tear strips were cut horizontally and placed in cryovials. They were stored frozen for further analysis. To assess TBUT, one drop of the saline without preservatives was added to a fluorescein strip (Haag-Streit, Koeniz, Switzerland). It was applied to the conjunctiva of the lower eyelid. The patients blinked their eye 3 to 4 times for a few seconds for mixing thoroughly with the dye. Then, the test was conducted by using a slit lamp with cobalt blue light. The time until the defect appeared in the stained tear film was measured and recorded as TBUT. TBUT was measured three times and the score was averaged. OSS scores including conjunctival and corneal staining scores were evaluated according to the SICCA registry ocular examination protocol. First, one drop of 2% sterile fluorescein was put on the conjunctival sac to permeate. After one minute, the corneal staining score was assessed by evaluating fluorescein staining using a slit lamp with cobalt blue filter. The punctate epithelial erosions (PEE) stained with fluorescein were calculated and scored. When there is no PEE, the score is zero. When PEE is 1 to 5, the corneal score is 1; When PEE is 6 to 30, the score is 2; When PEE exceeds 30, the score is 3. Additional points were added when there were one or more fused staining portions, when there was staining in the pupil area of the cornea, or when there were one or more filaments in any part of the cornea. The maximum available score is 6 for each cornea. In order to measure the conjunctival staining score, fluorescein was washed with the saline without preservatives. Then, one drop of 1% Lissamine green dye (Leiter's Pharmacy San Jose, California) was applied to the lower conjunctival fornix of both eyes. […]

LC3B-II/I protein ratio = test: Western blotting of tears, relative concentration measurement, after corticosteroid treatment; details: tears of SS DE patients; level before treatment 1.87±0.10; statistically significantly decreased
Procedure: (§1) Tears were collected from the Schirmer strips which absorbed the tear fluid as in Example 1. In order to extract tears, the Schirmer strips were placed in tubes containing extraction buffer (NaCl 0.5 M, Tween 20 0.5% in PBS). After one hour, the strips were transferred to a 0.5 ml tube with a hole at the bottom thereof using a cannula. The tube was inserted into a larger tube (1.5 ml). It was centrifuged at 12,000 rpm for 15 minutes. The centrifugal force caused the fluid to be drawn from the strip. Thus, the tear fluid passed through the center hole at the bottom of the small tube and was collected into the external 1.5 ml tube. The tear fluid was mixed with the sample-loading buffer, heated for 10 minutes, and centrifuged. Then, the protein concentration in the clear isolate was determined by using the BCA protein assay kit (Thermo Fisher Scientific, Rockford, IL). […] The improved chemical luminescence reagent (ECL; Amersham Biosciences, Sweden) was used to detect the protein band. […]
(§2) After applying topical corticosteroids to Sjögren's syndrome dry eye patients, change in the clinical parameters was assessed as well as autodigestion marker expression. After one month with topical corticosteroid therapy with artificial tears, OSDI score, Schirmer I value, TBUT, corneal staining, conjunctival staining, and OSS score were measured as in Example 1. […]

ATG5 protein = test: as above; details: tears of SS DE patients; level before treatment 5.06±0.31; statistically significantly decreased
Procedure: as §1, §2

[2] = tested on: autodigestion marker (ATG5 and LC3B-II) in the conjunctiva; test: Immunostaining of ATG5 and LC3B-II of conjunctiva before and after corticosteroid treatment; details: SS DE patients after the corticosteroid treatment; representative immunohistochemical images
Procedure: (§3) IC was carried out 15 minutes after the last stained eye solution was permeated by using a polyethersulfone filter (Suopor 200 membrane, Pall Corporation, Port Washington, New York). The filter paper was cut in half (13×6.5 mm). The sides were attached on the upper side-nasal and the upper side-temporal bulbar conjunctiva, respectively. With 0.05% paraformaldehyde (PFA), the filter attached on the upper side-nasal conjunctiva was transferred into a tube containing 2 ml of PBS for immunostaining. The paper attached on the upper side-temporal conjunctiva was collected from the filter paper up to 3 hours for the RNA extraction.
The IC filter paper having isolated epithelial cells was firmly pressed against a silane-coated slide (Muto Pure Chemicals Co., ltd. Tokyo, Japan). Thus, the epithelial cells were transferred onto the slide. They were used for immunofluorescence staining according to the Baudouins protocol. […]
as §2

LC3B-II mRNA = test: Real-time PCR of conjunctival epithelial cells (impression cytology) after corticosteroid treatment; details: conjunctival epithelial cells of SS DE patients; level before treatment 12.93±4.44; statistically significantly decreased
Procedure: as §3
(§4) RNAs were isolated from IC using TRIzol reagent (Gibco-Invitrogen, Grand Island, New York) according to the modified protocol (Barabino S et al., Immune response in the conjunctival epithelium of patients with dry eye. Experimental eye research 2010; 91: 524-9). […] The […] method was used for relative quantification. […]
as §2

ATG5 mRNA = test: as above; details: conjunctival epithelial cells of SS DE patients; level before treatment 13.16±4.36; statistically significantly decreased
Procedure: as §3, §4, §2

CC(=O)[C@@]1(O)CC[C@H]2[C@@H]3C[C@H](C)C4=CC(=O)C=C[C@]4(C)[C@@]3(F)[C@@H](O)C[C@@]21C [corticosteroid, fluoromeladone]
Conjunctival staining score (0-6), after treatment ([1]; before treatment 2.13 ± 1.90, P 0.0018): 1.06 ± 1.70
TBUT, after treatment ([1]; before treatment 2.16 ± 2.22, P 0.0007): 3.84 ± 1.90 s
Schirmer value, after treatment ([1]; before treatment 2.34 ± 1.66, P 0.0088): 3.78 ± 2.41 mm
Corneal staining score (0-6), after treatment ([1]; before treatment 2.78 ± 1.10, P <0.0001): 1.59 ± 1.21
Ocular surface staining score (0-12), after treatment ([1]; before treatment 4.84 ± 3.08, P <0.0001): 2.53 ± 2.55
OSDI score (0-100), after treatment ([1]; before treatment 50.19 ± 19.17, P 0.0411): 39.80 ± 17.89
LC3B-II/I protein ratio in tears after corticosteroid treatment (LC3B-II/I protein ratio): ~1.27±0.08 times in change
ATG5 protein (vs β-actin) in tears after corticosteroid treatment (ATG5 protein): approximately 0.88±0.07 times in change
staining spotting pattern of the autodigestion marker in the conjunctiva [2]: normalized
LC3B-II gene encoding level after corticosteroid treatment (LC3B-II mRNA): ~2.57±0.48 times in change
ATG5 gene encoding level after corticosteroid treatment (ATG5 mRNA): approximately 1.23±0.27 times in change
